Where a name gives a salt, the structure may show the parent alone.
How the values were obtained:
Wfs1^ΔExon8 mice [1] = assay: Place learning in the water-maze (spatial reference memory); type: in vivo
Procedure: (§1) Drugs and administration procedures: 2-(4-morpholinethyl)-1-phenylcyclohexanecarboxylate hydrochloride (PRE-084) was from Sigma-Aldrich (Saint-Quentin-Fallavier, France). […]
Place learning in the water-maze: Spatial reference memory was analyzed using a water-maze procedure. A transparent Plexiglas non-slippery platform (Ø 10 cm) was immersed in a circular pool (Ø 140 cm, height 40 cm), under the water surface during acquisition. The water temperature, 23 ± 1°C, light intensity, external cues in the room, and water opacity were rigorously reproduced. Swimming was videotracked (Viewpoint), with trajectories being analyzed as latencies and distances. The software divided the pool into four quadrants. Training consisted in three swims per day for 6 days, with 15 min intertrial-time interval. Start positions, set at each limit between quadrants, were randomly selected and each mouse was allowed a 90 s swim to find the platform, initially placed in the NE quadrant. […] The median latency and swim path length were calculated for each training day. Acquisition slopes were also calculated individually over the acquisition period. Forty-eight hours after the last swim, on day 7, a probe test was performed during which the platform was removed and each animal allowed a free 60 s swim. The time spent in the training (T) quadrant and the average of time spent in the 3 others (o) were determined. On days 8, mice were re-tested in the water-maze for assessing visual ability and non-spatial learning. They were submitted to the acquisition of a visible platform placed in a new location, with training consisting in three swims per day with 15 min intertrial-time interval. Swimming was analyzed as latencies. No exclusion criterion has been set in this test.

Wfs1^ΔExon8 mice [2] = assay: Black-and-white exploration box test (anxiety); type: in vivo; conditions: female Wfs1^ΔExon8 mice, 0.3 mg/kg ip 30 min before
Excerpt: as §1
Black-and-white exploration box test: Anxiety level of WFS1 KO mice was first examined using the black-and-white exploration box. It consisted of two adjacent compartments (23 × 16 × 10 cm^3) separated by a small opening (6 × 6 cm^2). The light compartment is brightly lit from above and covered with a transparent lid, and the dark compartment is covered with a black lid. Mice were placed in the light box, and exploration measured during 10 min by IR videotracking (Viewpoint). The time spent in each compartment and number of crossings among compartments were recorded. The time in the light compartment per visit was calculated. […] Seven animals were discarded accordingly corresponding to 14% attrition.
(§2) Experimental series: For phenotyping, animals were tested in series in the different behavioral tests assessing activity, learning and memory or anxiety, finishing with the most stressful procedures: (1) open-field (1 day), (2) spontaneous alternation (1 day), (3) object recognition (2 days), (4) place learning in the water-maze water-maze (5+2 days), (5) passive avoidance (2 days), (6) elevated plus-maze (1 day), and (7) black-and-white box exploration (1 day), in that order and over 16 days. For PRE-084 treatment experiments, animals were tested in series on a limited number of tests: spontaneous alternation (1 day), object recognition (2 days) and passive avoidance (2 days) for males, elevated plus-maze (1 day) and black-and-white box (1 day) for females.

Wfs1^ΔExon8 mice [3] = assay: Elevated plus-maze test (anxiety); type: in vivo; conditions: female Wfs1^ΔExon8 mice, 0.3 mg/kg ip 30 min before
Excerpt: as §1
Elevated plus-maze test: The apparatus consisted of two open arms (24 × 8 cm^2), in white PVC, and two enclosed arms (24 × 8 × 20 cm^3), in dark grey PVC. The arms extended from a central platform (8 × 8 cm), and the maze was elevated to a height of 50 cm above the floor. Each mouse was placed at the centre of the plus-maze and its exploration behaviour was recorded during 10 min. The time spent and numbers of entries into the enclosed or open arms were recorded. Results were expressed as total number of entries into the arms, time spent in the open arms, time spent per visit in the open arms.
as §2

Wfs1^ΔExon8 mice [4] = assay: Spontaneous alternation in the Y-maze (spatial working memory); type: in vivo; conditions: male Wfs1^ΔExon8 mice; PRE-084 0.3 mg/kg ip (legend b25; b84 says 1 mg/Kg) 30 min before the Y-maze session; Fig. 2
Excerpt: as §1
Spontaneous alternation in the Y-maze: The test assesses spatial working memory. The maze was made of grey polyvinylchloride. Each arm was 40 cm long, 13 cm high, 3 cm wide at the bottom, 10 cm wide at the top, and converging at an equal angle. Each mouse was placed at the end of one arm and allowed to move freely through the maze during an 8 min session. The series of arm entries, including possible returns into the same arm, was recorded visually. An alternation was defined as entries into all three arms on consecutive occasions. The number of maximum alternations was therefore the total number of arm entries minus two and the percentage of alternation was calculated as (actual alternations/maximum alternations) × 100. […] Thirteen animals were discarded accordingly corresponding to 26% attrition. […]

Wfs1^ΔExon8 mice [5] = assay: Object recognition test (short-term recognition memory); type: in vivo; conditions: male Wfs1^ΔExon8 mice
Excerpt: as §1
Object recognition test: The test measures short-term recognition memory. The apparatus consisted in four squared open-fields (50 cm × 50 cm × 50 cm high) made in white Plexiglas and placed on a floor equipped with infrared (IR) light emitting diodes. The locomotor activity of the animal and position of their nose could be captured through an IR-sensitive camera and analyzed using the Videotrack® and Nosetrack® softwares (Viewpoint). Session 1: animals were allowed to acclimate during 10 min to the open-field. The mouse locomotion was analyzed by videotracking. […] Each mouse was placed in the open-field and the exploratory activity and nose position was recorded during 10 min. The activity was analyzed by videotracking in terms of number of contacts with the objects and duration of contacts. […] Each mouse was placed again in the open-field and the exploratory activity recorded during 10 min. The activity was analyzed similarly. The preferential exploration index was calculated as the ratio of the number of contacts with the object in position 2 over the total number of contacts with the two objects. […]

Wfs1ab^KO larvae = assay: Visual Motor Response (VMR), locomotor activity of larvae during light OFF periods; type: in vivo, zebrafish; conditions: Fig. 9
Procedure: Zebrafish Generation: All experiments were performed in accordance with the 2010/63/EU Directive and the ARRIVE guidelines. Zebrafish were purchased at the KIT - European Zebrafish Resource Center. Heterozygous Wfs1a^C799X and Wfs1b^W493X mutant line were maintained in an automated fish tank system (ZebTEC, Tecniplast) at 28°C, pH 7, conductivity around 500 µS and with a 14h:10h light:dark cycle. They were fed with standard diet. Heterozygous Wfs1a^C799X/+ zebrafish were crossed to generate wild-type (Wfs1a^WT) and homozygous mutant Wfs1a^C799X zebrafish (Wfs1a^C799X), which became progenitors in order to generate future generations for the experiments. […]
Visual Motor Response (VMR): The VMR assay quantifies the locomotor activity of zebrafish larvae to light changes using infrared tracking system. […] At 5-dpf, the locomotor behavior of larvae was monitored by using an automated videotracking device (Zebrabox®, ViewPoint) by employing a DinionXF 1/3-inch Monochrome camera (model BFLY-PGE-13H2M, FLIR) fitted with a fixed-angle megapixel lens (SR5014MP-5C, SEIKO Optical). […] The floor of the box emitted by a light-controlling unit a white light (69-83 µW/cm2 measured at 495 λ). The response to stimuli was recorded by an infra-red (IR) camera (25 frames/s) under IR light illumination at 850 nm, which the animals could not perceive. […] The distance covered was measured in mm/s. […]

Wfs1^ΔExon8 mice [6] = assay: Step-through type passive avoidance test (non-spatial long-term memory); type: in vivo; conditions: male Wfs1^ΔExon8 mice, 0.3 mg/kg ip 30 min before training, retention
Excerpt: as §1
Step-through type passive avoidance test: The test measures non-spatial long-term memory. The apparatus is a two-compartments (15 × 20 × 15 cm high) box with one illuminated with white polyvinylchloride walls and the other darkened with black polyvinylchloride walls and a grid floor. A guillotine door separates each compartment. A 60 W lamp positioned 40 cm above the apparatus lights up the white compartment during the experiment. Scrambled foot shocks (0.3 mA for 3 s) could be delivered to the grid floor using a shock generator scrambler (Lafayette Instruments, Lafayette, USA). The guillotine door was initially closed during the training session. Each mouse was placed into the white compartment. After 5 s, the door was raised. […] The step-through latency, that is, the latency spent to enter the darkened compartment, and the shock sensitivity (estimated as 0 = no reaction, 1 = flinching reactions, 2 = flinchings and vocalizations) were recorded. […] The step-through latency and escape latency (corresponding to the time spent to exit the dark compartment) were recorded up to 300 s each. […]

Compound: O=C(OCCN1CCOCC1)C1(c2ccccc2)CCCCC1 [PRE-084, 2-(4-morpholinethyl)-1-phenylcyclohexanecarboxylate hydrochloride]
- acquisition slopes (Wfs1^ΔExon8 mice [1]; male Wfs1^ΔExon8 mice, compared to V-treated Wfs1^WT mice, Fig. 4c): only vehicle (V)-treated Wfs1^ΔExon8 mice showed a statistically significant decrease
- delay in acquisition / swimming latencies (Wfs1^ΔExon8 mice [1]; male Wfs1^ΔExon8 mice, daily injection 0.3 mg/kg ip 30 min before 1st swim of each training trial, Fig. 4b): prevented this delay and significantly decreased swimming latencies during the two last trials
- probe test, exploration of the T quadrant (Wfs1^ΔExon8 mice [1]; male mice, 60-s swim without platform, Fig. 4d): no impact of the PRE-084 was noted
- number of crossing (Wfs1^ΔExon8 mice [2]; Fig. 6a): slightly reduced
- time spent in the light compartment (Wfs1^ΔExon8 mice [2]; Fig. 6b): increased up to the levels of Wfs1^WT mice
- time per visit (light compartment) (Wfs1^ΔExon8 mice [2]; Fig. 6c): increased up to the levels of Wfs1^WT mice
- maze exploration (total number of arm entries) (Wfs1^ΔExon8 mice [3]; Fig. 7a): no impact was noted
- time spent in open arms (Wfs1^ΔExon8 mice [3]; Fig. 7b): slightly increased
- time per visit in open arms (Wfs1^ΔExon8 mice [3]; Fig. 7c): significantly increased
- spontaneous alternation (Wfs1^ΔExon8 mice [4]): very significant recovery of spontaneous alternation
- object exploration during session 2 (Wfs1^ΔExon8 mice [5]; 0.3 mg/kg ip 30 min before session with two identical objects, Fig. 3a): failed to affect object exploration
- exploration for the novel object in session 3 (Wfs1^ΔExon8 mice [5]; 0.3 mg/kg ip, Fig. 3b): attenuated the deficit of exploration for the novel object
- hyperlocomotor response (Wfs1ab^KO larvae; at 3 and 10 µM in the bath): down to the WT line mobility
- hyperlocomotor response (Wfs1ab^KO larvae; between 0.1 and 10 µM in the bath, 4 dpf to 5 dpf): concentration-dependent decrease of the hyperlocomotor response
- escape latency (Wfs1^ΔExon8 mice [6]; Fig. 5b): significantly reduced
- step-through latency deficit (Wfs1^ΔExon8 mice [6]; compared to V-treated Wfs1^WT mice, Fig. 5a): very significant for V-treated Wfs1^ΔExon8 mice but not for PRE-084-treated Wfs1^ΔExon8 mice
